Holding throughout (format): functional, organism-based
Test [1] concerns Aspergillus fumigatus. Kind of test: Antimicrobial activity against Aspergillus fumigatus […] by standard disk assay.
Test [2] deals with Mycobacterium intracellulare. The experiment in a line: Antimicrobial activity against Mycobacterium intracellular […] by alamar blue assay.
For test [3], the system named is Escherichia coli. Kind of test: Antimicrobial activity against Escherichia coli ATCC 35218 by standard disk assay.
Test [4] has as its system Staphylococcus aureus. The experiment in a line: Antimicrobial activity against methicillin-resistant Staphylococcus aureus ATCC 43300 by standard disk assay.
The test system of test [5] is Pseudomonas aeruginosa. The experiment in a line: Antimicrobial activity against Pseudomonas aeruginosa ATCC 27853 by standard disk assay.
Test [6] deals with Candida albicans. Kind of test: Antimicrobial activity against Candida albicans ATCC 90028 by standard disk assay.
For test [7], the system named is Cryptococcus neoformans. Kind of test: Antimicrobial activity against Cryptococcus neoformans ATCC 90113 by standard disk assay.

pIC50: −log10 of the molar value. Activity calls are given as the source filed them. The calls are words filed in the database; no cut-off is given here.

With `Cc1c(O)c(CC[C@H](C)C(=O)O)c(O)c2c1COC2=O`, the result in test [1], in test [2], in test [3], in test [4] and in test [5] was inactive.

For `Cc1c(O)cc(O)c2c1COC2=O`, the result in test [1], in test [2], in test [3], in test [4] and in test [5] was inactive.

Consider `COc1c(C)c2c(c(O)c1C/C=C(\C)[C@@H](O)CC(=O)O)C(=O)OC2`, for which the result in test [1], in test [2], in test [3], in test [4] and in test [5] was inactive.

Consider `COc1c(C)c2c(c(O)c1C/C=C(\C)CCC(=O)O)C(=O)OC2` [MYCOPHENOLIC ACID], for which the result in test [1], in test [2], in test [3], in test [4] and in test [5] was inactive. Besides, the pIC50 in test [6] was 5.10; in test [7] it was 4.82.

As for `COc1c(C)c2c(c(O)c1CC[C@H](C)C(=O)O)C(=O)OC2`, the outcome in test [1], in test [2], in test [3] and in test [5] was inactive.

Consider `COC(=O)C[C@H](O)/C(C)=C/Cc1c(OC)c(C)c2c(c1OC)C(=O)OC2`, for which the outcome in test [1], in test [2], in test [3], in test [4] and in test [5] was inactive.

Values taken from ChEMBL document CHEMBL1154132, “Mycophenolic derivatives from Eupenicillium parvum” (J Nat Prod, 2008).
